Experimental data published in the supplement of paper PMC10307832.

Experiments:
Assay in all cases: relative viability (nuclei count vs DMSO), 5 days (fraction); higher = more cells survive
[1] = compound: C1=CC2=C(C=C(C(=C2N=C1)O)N=NC3=CC4=C(C=C3)C=C(C=C4)S(=O)(=O)O)S(=O)(=O)O + CC(C)C[C@H](NC(=O)[C@H](Cc1ccccc1)NC(=O)c1cnccn1)B(O)O [Bortezomib] (partner 0.002 µM)
How it was run: (§1)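 One day after seeding in 1536-well plates, lung cancer cell lines were dosed by pin tool. Dosing was either single-drug or a fixed anchor-drug dose plus five library-drug doses (not always all listed) in √10 steps. After 5 days, nuclei were stained in one fix-and-stain step and counted on 4× images, and relative viability is the nuclei count of treated wells over that of vehicle wells, given as the median of duplicate plates.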

[2] = compound: C1=CC2=C(C=C(C(=C2N=C1)O)N=NC3=CC4=C(C=C3)C=C(C=C4)S(=O)(=O)O)S(=O)(=O)O + CS(=O)(=O)N1CCN(Cc2cc3nc(-c4cccc5[nH]ncc45)nc(N4CCOCC4)c3s2)CC1 [Pictilisib] (partner 1 µM)
How it was run: as §1

[3] = compound: C1=CC2=C(C=C(C(=C2N=C1)O)N=NC3=CC4=C(C=C3)C=C(C=C4)S(=O)(=O)O)S(=O)(=O)O + O=C(c1cc(Cc2n[nH]c(=O)c3ccccc23)ccc1F)N1CCN(C(=O)C2CC2)CC1 [Olaparib] (partner 8 µM)
How it was run: as §1

AT-7519 + Dasatinib = compound: O=C(NC1CCNCC1)c1n[nH]cc1NC(=O)c1c(Cl)cccc1Cl [AT-7519] + Cc1nc(Nc2ncc(C(=O)Nc3c(C)cccc3Cl)s2)cc(N2CCN(CCO)CC2)n1 [Dasatinib] (partner 0.075 µM)
How it was run: as §1

Row | Cell Line | relative viability ([1]; first compound 0.08 µM) | relative viability ([1]; first compound 0.253 µM) | relative viability ([1]; first compound 0.8 µM) | relative viability ([1]; first compound 2.53 µM) | relative viability ([1]; first compound 8 µM) | relative viability ([2]; first compound 0.08 µM) | relative viability ([2]; first compound 0.253 µM) | relative viability ([2]; first compound 0.8 µM) | relative viability ([2]; first compound 2.53 µM) | relative viability ([2]; first compound 8 µM) | relative viability ([3]; first compound 0.08 µM) | relative viability ([3]; first compound 0.253 µM) | relative viability ([3]; first compound 0.8 µM) | relative viability ([3]; first compound 2.53 µM) | relative viability ([3]; first compound 8 µM) | relative viability (AT-7519 + Dasatinib; first compound 0.01 µM) | relative viability (AT-7519 + Dasatinib; first compound 0.03162 µM) | relative viability (AT-7519 + Dasatinib; first compound 0.3162 µM) | relative viability (AT-7519 + Dasatinib; first compound 1 µM)
1 | HCC-78 | 0.513 | 0.469 | 0.475 | 0.417 | 0.526 | 0.206 | 0.178 | 0.221 | 0.219 | 0.118 | 0.971 | 0.908 | 0.733 | 0.801 | 0.811 | 0.368 | 0.397 | 0.335 | 0.364
2 | HCC-366 | 1.03 | 1.03 | 1.02 | 1.13 | 0.985 | 0.142 | 0.139 | 0.165 | 0.219 | 0.203 | 0.432 | 0.402 | 0.335 | 0.361 | 0.319 | 0.729 | 0.571 | 0.435 | 0.308
3 | HCC-827 | 1.06 | 0.95 | 0.948 | 1.02 | 1.03 | 1.09 | 1.07 | 0.801 | 1.02 | 0.992 | 0.68 | 0.524 | 0.647 | 0.568 | 0.687 | 0.299 | 0.298 | 0.207 | 0.249
4 | HOP-62 | 0.714 | 0.558 | 0.851 | 0.725 | 0.637 | 0.842 | 0.707 | 0.651 | 0.723 | 0.691 | 0.403 | 0.376 | 0.312 | 0.465 | 0.516 | 0.653 | 0.699 | 0.731 | 0.626
5 | IA-LM | 0.93 | 0.843 | 0.803 | 0.819 | 0.923 | 0.302 | 0.312 | 0.283 | 0.347 | 0.322 | 1.01 | 0.777 | 0.788 | 0.747 | 0.952 | – | – | – | –
6 | LC-2-ad | 1.12 | 1.04 | 0.976 | 1.08 | 0.902 | 0.429 | 0.476 | 0.532 | 0.405 | 0.423 | 0.72 | 0.671 | 0.749 | 0.683 | 0.744 | 0.555 | 0.61 | 0.328 | 0.332
7 | LCLC-97TM1 | 0.815 | 0.492 | 0.525 | 0.753 | 0.395 | – | 0.239 | – | 0.149 | 0.222 | 0.41 | 0.38 | 0.432 | 0.338 | 0.32 | 0.911 | 0.791 | 0.763 | 0.396
8 | LCLC-103H | 1.14 | 1.14 | 1.12 | 1.15 | 1.02 | 0.662 | 0.625 | 0.489 | 0.615 | 0.705 | 0.774 | 0.721 | 0.735 | 0.779 | 0.753 | 0.533 | 0.388 | 0.451 | 0.54
9 | LK-2 | – | – | – | – | – | 0.677 | 0.522 | 0.613 | 0.541 | 0.552 | 0.892 | 0.678 | 0.581 | 0.74 | 0.728 | 0.288 | 0.248 | – | 0.221
10 | NCI-H358 | – | – | – | – | – | 0.37 | 0.35 | 0.323 | 0.356 | 0.363 | 0.656 | 0.555 | 0.551 | 0.57 | 0.569 | 0.15 | 0.163 | 0.161 | 0.119
11 | NCI-H522 | – | – | – | – | – | – | – | – | – | – | 0.601 | 0.625 | 0.564 | 0.561 | 0.708 | – | 0.864 | 0.841 | 0.956
12 | NCI-H1299 | 1.06 | 0.99 | 0.999 | 1.02 | 1.03 | 0.755 | 0.823 | 0.821 | 0.87 | 0.623 | 1.01 | 0.95 | 0.935 | 0.956 | 0.976 | – | – | – | –
13 | NCI-H1395 | – | – | – | – | – | 0.667 | 0.607 | 0.578 | 0.575 | 0.602 | 0.498 | 0.47 | 0.489 | 0.469 | 0.402 | 0.418 | 0.377 | 0.408 | 0.413
14 | NCI-H1563 | 0.848 | 0.952 | 0.959 | 0.857 | 0.994 | 0.623 | 0.638 | 0.653 | 0.626 | 0.701 | – | – | – | – | – | 0.467 | 0.418 | 0.435 | 0.434
15 | NCI-H1648 | – | – | – | – | – | – | – | – | – | – | – | 0.793 | – | – | 0.893 | – | – | – | –
16 | NCI-H1703 | 0.316 | 0.306 | 0.355 | 0.39 | 0.26 | 0.264 | 0.232 | 0.265 | 0.246 | 0.197 | 0.3 | – | 0.339 | 0.475 | 0.41 | – | – | – | –
17 | NCI-H1793 | – | – | – | – | – | 0.313 | 0.323 | – | 0.291 | 0.369 | 1 | 0.762 | 0.883 | 0.952 | 0.891 | 0.319 | 0.361 | 0.407 | 0.247
18 | NCI-H1944 | – | – | – | – | – | 0.333 | 0.348 | 0.327 | 0.345 | 0.332 | 0.407 | 0.402 | 0.426 | 0.416 | 0.33 | 0.205 | 0.198 | 0.215 | 0.124
19 | NCI-H2170 | – | – | – | – | – | 0.315 | 0.4 | 0.312 | 0.306 | 0.308 | 0.639 | 0.557 | 0.595 | 0.614 | 0.576 | 0.593 | 0.576 | 0.626 | 0.558
20 | NCI-H2342 | – | – | – | – | – | – | – | – | – | – | 0.476 | 0.466 | 0.452 | 0.462 | 0.711 | 0.328 | 0.277 | 0.314 | 0.313
21 | SK-MES-1 | – | – | – | – | – | 0.444 | 0.354 | 0.376 | 0.328 | 0.377 | 0.793 | 0.703 | 0.609 | 0.691 | 0.707 | 0.336 | 0.31 | 0.405 | 0.217
22 | SW 900 | – | – | – | – | – | – | – | – | – | – | 1.1 | 0.826 | 0.75 | 0.878 | 0.757 | 0.715 | 0.568 | 0.642 | 0.254
